According to PMC9477735, “Phosphorylation of muramyl peptides by NAGK is required for NOD2 activation” (Nature, 2022):

Key:
[1] = molecular target: T1, N-acetylglucosamine kinase (NAGK) (Homo sapiens, UniProt Q9UJ70); assay: in vitro kinase assay with [γ-32P]ATP and TLC; type: biochemical
T1 construct: full-length human NAGK, recombinant from E. coli, His-MBP tag removed

[2] = molecular target: T1, N-acetylglucosamine kinase (NAGK); assay: in vitro kinase assay with [γ-32P]ATP and TLC; LC-MS/MS; NMR of product; type: biochemical

T1 sequence (Q9UJ70 2-344): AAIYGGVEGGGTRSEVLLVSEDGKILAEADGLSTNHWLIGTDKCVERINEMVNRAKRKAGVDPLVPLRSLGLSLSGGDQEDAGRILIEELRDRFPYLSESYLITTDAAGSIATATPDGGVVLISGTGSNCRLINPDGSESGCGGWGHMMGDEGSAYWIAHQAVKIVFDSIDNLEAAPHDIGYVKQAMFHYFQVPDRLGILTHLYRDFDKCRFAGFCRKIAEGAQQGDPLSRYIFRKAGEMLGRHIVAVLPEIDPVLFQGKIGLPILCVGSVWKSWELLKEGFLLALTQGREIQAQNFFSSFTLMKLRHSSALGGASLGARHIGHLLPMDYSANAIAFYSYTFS

Row | Compound | in vitro kinase assay with [γ-32P]ATP and TLC [1] | in vitro kinase assay with [γ-32P]ATP and TLC; LC-MS/MS; NMR of product [2]
1 | CC(=O)N[C@H]1C(O)O[C@H](CO)[C@@H](O)[C@@H]1O (some centres unmarked) [GlcNAc, N-acetylglucosamine] | to similar levels as its bona fide substrate GlcNAc (Fig. 3b) | 
2 | CC(=O)N[C@H]1C(O)O[C@H](CO)[C@@H](O)[C@@H]1O[C@H](C)C(=O)N[C@@H](C)C(=O)N[C@H](CCC(=O)O)C(N)=O (some centres unmarked) [MDP] |  | These assays revealed that NAGK readily phosphorylated MDP and the related molecule N-acetylmuramic acid (MurNAc)
